Assay results reported in patent publication US20240124444A1 (Celgene Corporation, priority 2020, published 2024).

System: C. parvum strain UGA1
Assay: C. parvum growth inhibition assay (Nluc luminescence in HCT-8 cells)
Assay type: cell-based, Cryptosporidium parvum
Details: for inhibition at 1 µM / inhibition at 10 µM / EC50: Cryptosporidium parvum; for inhibition at 1 µM / inhibition at 10 µM: HCT-8; for inhibition at 1 µM: read-out: % inh @ 1 uM C. parvum; for inhibition at 10 µM: read-out: % inh @ 10 uM C. parvum; for EC50: HCT-8, 48 h, C. parvum growth inhibition in HCT-8 cells, 48 hours, 6 concentrations 10-0.04 μM
[1] = single point inhibition at 1 uM
[2] = single point inhibition at 10 uM

SMILES | inhibition at 1 µM [1] | inhibition at 10 µM [2] | % inh @ 1 uM C. parvum [1] | % inh @ 10 uM C. parvum [2] | EC50
CCOc1nccc(-c2cc3cnc(NC(=O)c4ccc(OC)c(OC)c4)cc3[nH]2)n1 [Example 321, N-(2-(2-ethoxypyrimidin-4-yl)-1H-pyrrolo[3,2-c]pyridin-6-yl)-3,4-dimethoxybenzamide] | 0 to 33% | 0 to 33% |  |  | 
O=C(Nc1cc2[nH]c(-c3ccnc(OCC(F)F)n3)cc2cn1)c1cnn([C@H]2CC[C@@H](O)CC2)c1 [Example 323, N-(2-(2-(2,2-difluoroethoxy)pyrimidin-4-yl)-1H-pyrrolo[3,2-c]pyridin-6-yl)-1-((1s,4s)-4-hydroxycyclohexyl)-1H-pyrazole-4-carboxamide] | 0 to 33% | 0 to 33% |  |  | 
Cn1cc(C(=O)Nc2cc3[nH]c(-c4ccnc(OC5CC(O)C5)n4)cc3cn2)cn1 (centres unmarked) [Example 324, N-(2-(2-(3-hydroxycyclobutoxy)pyrimidin-4-yl)-1H-pyrrolo[3,2-c]pyridin-6-yl)-1-methyl-1H-pyrazole-4-carboxamide] | 0 to 33% | 0 to 33% |  |  | 
Cn1cc(C(=O)Nc2cc3[nH]c(-c4ccnc(O[C@H]5CC[C@@H](O)CC5)n4)cc3cn2)cn1 [Example 325, N-(2-(2-((1s,4s)-4-hydroxycyclohexyloxy)pyrimidin-4-yl)-1H-pyrrolo[3,2-c]pyridin-6-yl)-1-methyl-1H-pyrazole-4-carboxamide] |  |  | D (single point inhibition values of 0-33% (activity level D)) | D (single point inhibition values of 0-33% (activity level D)) | 
Cc1cc2cnc(NC(=O)C3CC3)cc2[nH]1 [Example 327, N-(2-methyl-1H-pyrrolo[3,2-c]pyridin-6-yl)cyclopropanecarboxamide] | 0 to 33% | 0 to 33% |  |  | 
Cc1cc(-c2cc3cnc(NC(=O)c4cnn(C)c4)cc3[nH]2)ncn1 [Example 328, 1-methyl-N-(2-(6-methylpyrimidin-4-yl)-1H-pyrrolo[3,2-c]pyridin-6-yl)-1H-pyrazole-4-carboxamide] | 0 to 33% | 0 to 33% |  |  | 
Cc1cc(-c2cc3cnc(NC(=O)C4CC4)cc3n2C(C)C)ccn1 [Example 329, N-(1-isopropyl-2-(2-methylpyridin-4-yl)-1H-pyrrolo[3,2-c]pyridin-6-yl)cyclopropanecarboxamide] | 0 to 33% | 0 to 33% |  |  | 
O=C(Nc1cc2[nH]c(-c3cnc[nH]3)cc2cn1)C1CC1 [Example 330, N-(2-(1H-imidazol-5-yl)-1H-pyrrolo[3,2-c]pyridin-6-yl)cyclopropanecarboxamide] | 0 to 33% | 0 to 33% |  |  | 
Cn1cc(C(=O)Nc2cc3[nH]c(-c4cnn(C)c4)cc3cn2)cn1 [Example 331, 1-methyl-N-(2-(1-methyl-1H-pyrazol-4-yl)-1H-pyrrolo[3,2-c]pyridin-6-yl)-1H-pyrazole-4-carboxamide] | 0 to 33% | 0 to 33% |  |  | 
Cn1cc(C(=O)Nc2cc3[nH]c(-c4cccnc4)cc3cn2)cn1 [Example 332, 1-methyl-N-(2-(pyridin-3-yl)-1H-pyrrolo[3,2-c]pyridin-6-yl)-1H-pyrazole-4-carboxamide] | 0 to 33% | 0 to 33% |  |  | 
Cc1cc(-c2cc3cnc(NC(=O)C4CC4)cc3n2CCN(C)C)ccn1 [Example 333, N-(1-(2-(dimethylamino)ethyl)-2-(2-methylpyridin-4-yl)-1H-pyrrolo[3,2-c]pyridin-6-yl)cyclopropanecarboxamide] | 0 to 33% | 0 to 33% |  |  | 
Cn1cc(C(=O)Nc2cc3[nH]c(-c4ccc(F)cn4)cc3cn2)cn1 [Example 334, N-(2-(5-fluoropyridin-2-yl)-1H-pyrrolo[3,2-c]pyridin-6-yl)-1-methyl-1H-pyrazole-4-carboxamide] | 0 to 33% | 0 to 33% |  |  | 
Cc1nc(-c2cc3cnc(NC(=O)C4CC4)cc3[nH]2)co1 [Example 335, N-(2-(2-methyloxazol-4-yl)-1H-pyrrolo[3,2-c]pyridin-6-yl)cyclopropanecarboxamide] | 0 to 33% | 0 to 33% |  |  | 
CN1CCC(c2cc3cnc(NC(=O)c4cnn(C)c4)cc3[nH]2)CC1 [Example 336, 1-methyl-N-(2-(1-methylpiperidin-4-yl)-1H-pyrrolo[3,2-c]pyridin-6-yl)-1H-pyrazole-4-carboxamide] | 0 to 33% | 0 to 33% |  |  | 
Cc1cc(Nc2cc3[nH]c(-c4cccnc4)cc3cn2)cc(-n2cncn2)c1 [Example 337, N-(3-methyl-5-(1H-1,2,4-triazol-1-yl)phenyl)-2-(pyridin-3-yl)-1H-pyrrolo[3,2-c]pyridin-6-amine] | 0 to 33% | 0 to 33% |  |  | 
CC(C)n1c(-c2ccnc(NCC(F)(F)F)n2)cc2cnc(NC(=O)c3cnn(C)c3)cc21 [Example 338, N-(1-isopropyl-2-(2-(2,2,2-trifluoroethylamino)pyrimidin-4-yl)-1H-pyrrolo[3,2-c]pyridin-6-yl)-1-methyl-1H-pyrazole-4-carboxamide] | 0 to 33% | 0 to 33% |  |  | 
Cc1cc(Nc2cc3[nH]c(-c4ccnc(C#N)c4)cc3cn2)cc(-n2cncn2)c1 [Example 339, 4-(6-(3-methyl-5-(1H-1,2,4-triazol-1-yl)phenylamino)-1H-pyrrolo[3,2-c]pyridin-2-yl)picolinonitrile] | 0 to 33% | 0 to 33% |  |  | 
Cc1cc(-c2cc3cnc(NC(=O)C4CC4)cc3[nH]2)ccc1F [Example 340, N-(2-(4-fluoro-3-methylphenyl)-1H-pyrrolo[3,2-c]pyridin-6-yl)cyclopropanecarboxamide] | 0 to 33% | 0 to 33% |  |  | 
Cn1cc(C(=O)Nc2cc3[nH]c(C(F)(F)F)cc3cn2)cn1 [Example 341, 1-methyl-N-(2-(tirfluoromethyl)-1H-pyrrolo[3,2-c]pyridin-6-yl)-1H-pyrazole-4-carboxamide] | 0 to 33% | 0 to 33% |  |  | 
Cn1cnc(-c2cc3cnc(NC(=O)C4CC4)cc3n2C)c1 [Example 342, N-(1-methyl-2-(1-methyl-1H-imidazol-4-yl)-1H-pyrrolo[3,2-c]pyridin-6-yl)cyclopropanecarboxamide] |  |  |  |  | > 1 µM
COc1nccc(-c2cc3cnc(NC(=O)C4CC4)cc3n2CCO)n1 [Example 343, N-(1-(2-hydroxyethyl)-2-(2-methoxypyrimidin-4-yl)-1H-pyrrolo[3,2-c]pyridin-6-yl)cyclopropanecarboxamide] |  |  |  |  | > 1 µM
CCn1c(-c2ccnc(OC)n2)cc2cnc(NC(=O)C3CC3)cc21 [Example 344, N-(1-ethyl-2-(2-methoxypyrimidin-4-yl)-1H-pyrrolo[3,2-c]pyridin-6-yl)cyclopropanecarboxamide] |  |  |  |  | 0.5 to 1 µM
Cn1ccc(-c2cc3cnc(NC(=O)C4CC4)cc3n2C)n1 [Example 345, N-(1-methyl-2-(1-methyl-1H-pyrazol-3-yl)-1H-pyrrolo[3,2-c]pyridin-6-yl)cycloproapnecarboxamide] |  |  |  |  | > 1 µM
Cc1cccc(-c2cc3cnc(NC(=O)C4CC4)cc3n2C)c1 [Example 346, N-(1-methyl-2-m-tolyl-1H-pyrrolo[3,2-c]pyridin-6-yl)cyclopropanecarboxamide] |  |  |  |  | > 1 µM
Cc1ccc(-c2cc3cnc(NC(=O)C4CC4)cc3n2C)nc1 [Example 347, N-(1-methyl-2-(5-methylpyridin-2-yl)-1H-pyrrolo[3,2-c]pyridin-6-yl)cyclopropanecarboxamide] |  |  |  |  | > 1 µM
